Measured values published in patent US20230021483A1, “[…] […] METHOD AND CLASSIFICATION OF PHARMACEUTICAL COMPONENTS BY USING TRANSCRIPTOMES” (National Institutes of Biomedical Innovation, Health and …, priority 2016, published 2023).

System: preferentially upregulated genes in LV, SP, LN
Assay: Z-score-based differential gene expression analysis (adjuvant group- or adjuvant-associated genes, 40 module mapping, TargetMine annotation)
Format: in vivo, C57BL/6 mice
Conditions: for Mndal 1426906_at (Group G1, Modules 20) / Pml 1448757_at (Group G1, Modules 20) / Pml 1456103_at (Group G1, Modules 20) / Rnf213 1455500_at (Group G1, Modules 20) / Rsad2 1436058_at (Group G1, Modules 20) / Shisa5 1423986_a_at (Group G1, Modules 20) / Shisa5 1437503_a_at (Group G1, Modules 20) / Stat1 1450033_a_at (Group G1, Modules 20) / Stat1 1450034_at (Group G1, Modules 20) / Tdrd7 1426716_at (Group G1, Modules 20) / Tor1aip2 1418115_s_at (Group G1, Modules 20) / Tor1aip2 1418116_at (Group G1, Modules 20) / Tor1aip2 1435526_at (Group G1, Modules 20) / Trim12a 1437432_a_at (Group G1, Modules 20) / Uba7 1426970_a_at (Group G1, Modules 20) / Adar 1425405_a_at (Group G1, Modules 20) / Adar 1434268_at (Group G1, Modules 20) / Ddx58 1436562_at (Group G1, Modules 20) / Ddx58 1456890_at (Group G1, Modules 20) / Eif2ak2 1422005_at (Group G1, Modules 20) / G3bp2 1421323_a_at (Group G1, Modules 20) / Gm9706///Isg15 1431591_s_at (Group G1, Modules 20) / H2-T10///H2-T22///H2-T9 1449875_s_at (Group G1, Modules 20) / Ifih1 1426276_at (Group G1, Modules 20) / Ifit1 1450783_at (Group G1, Modules 20) / Ifit3 1449025_at (Group G1, Modules 20) / Irf7 1417244_a_at (Group G1, Modules 20) / Irgm1 1418825_at (Group G1, Modules 20): ID, LV
Method in brief: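 Gene groups for each organ were built from combined z-score cutoffs across adjuvants, ranging from z>1 to z>3. Scores came from fold changes standardized per gene over the whole organ data set, with the three replicate z-scores added per adjuvant; sums above 3 marked preferential expression.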

What does the source list for `Nc1nc2c(ncn2[C@@H]2O[C@@H]3COP(=O)(O)O[C@H]4[C@@H](O)[C@H](n5cnc6c(N)ncnc65)O[C@@H]4COP(=O)(O)O[C@@H]2[C@@H]3O)c(=O)[nH]1` [cGAMP, Cyclic [G(2′,5′)pA(3′,5′)p]]?
Mndal 1426906_at (Group G1, Modules 20) (sample x1): 2.08; Pml 1448757_at (Group G1, Modules 20) (sample x1): 2.13; Pml 1456103_at (Group G1, Modules 20) (sample x1): 1.62; Rnf213 1455500_at (Group G1, Modules 20) (sample x1): 2.58; Rsad2 1436058_at (Group G1, Modules 20) (sample x1): 2.08; Shisa5 1423986_a_at (Group G1, Modules 20) (sample x1): 1.7; Shisa5 1437503_a_at (Group G1, Modules 20) (sample x1): 1.57; Stat1 1450033_a_at (Group G1, Modules 20) (sample x1): 3.11; Stat1 1450034_at (Group G1, Modules 20) (sample x1): 2.46; Tdrd7 1426716_at (Group G1, Modules 20) (sample x1): 2.18; Tor1aip2 1418115_s_at (Group G1, Modules 20) (sample x1): 2.9; Tor1aip2 1418116_at (Group G1, Modules 20) (sample x1): 2.41; Tor1aip2 1435526_at (Group G1, Modules 20) (sample x1): 2.32; Trim12a 1437432_a_at (Group G1, Modules 20) (sample x1): 2.07; Uba7 1426970_a_at (Group G1, Modules 20) (sample x1): 2.06; Adar 1425405_a_at (Group G1, Modules 20) (sample x2): 2.38; Adar 1434268_at (Group G1, Modules 20) (sample x2): 1.71; Ddx58 1436562_at (Group G1, Modules 20) (sample x2): 2.13; Ddx58 1456890_at (Group G1, Modules 20) (sample x2): 2.28; Eif2ak2 1422005_at (Group G1, Modules 20) (sample x2): 2.21; G3bp2 1421323_a_at (Group G1, Modules 20) (sample x2): 2.6; Gm9706///Isg15 1431591_s_at (Group G1, Modules 20) (sample x2): 1.62; H2-T10///H2-T22///H2-T9 1449875_s_at (Group G1, Modules 20) (sample x2): 1.8; Ifih1 1426276_at (Group G1, Modules 20) (sample x2): 1.62; Ifit1 1450783_at (Group G1, Modules 20) (sample x2): 2.63; Ifit3 1449025_at (Group G1, Modules 20) (sample x2): 1.95; Irf7 1417244_a_at (Group G1, Modules 20) (sample x2): 1.62; Irgm1 1418825_at (Group G1, Modules 20) (sample x2): 2.09; Mndal 1426906_at (Group G1, Modules 20) (sample x2): 2.11; Pml 1448757_at (Group G1, Modules 20) (sample x2): 2.02; Pml 1456103_at (Group G1, Modules 20) (sample x2): 1.48; Rnf213 1455500_at (Group G1, Modules 20) (sample x2): 2.34; Rsad2 1436058_at (Group G1, Modules 20) (sample x2): 1.89; Shisa5 1423986_a_at (Group G1, Modules 20) (sample x2): 1.43; Shisa5 1437503_a_at (Group G1, Modules 20) (sample x2): 1.63; Stat1 1450033_a_at (Group G1, Modules 20) (sample x2): 2.52; Stat1 1450034_at (Group G1, Modules 20) (sample x2): 1.97; Tdrd7 1426716_at (Group G1, Modules 20) (sample x2): 2.34; Tor1aip2 1418115_s_at (Group G1, Modules 20) (sample x2): 2.68; Tor1aip2 1418116_at (Group G1, Modules 20) (sample x2): 2.58; Tor1aip2 1435526_at (Group G1, Modules 20) (sample x2): 2.28; Trim12a 1437432_a_at (Group G1, Modules 20) (sample x2): 1.46; Uba7 1426970_a_at (Group G1, Modules 20) (sample x2): 1.28; Adar 1425405_a_at (Group G1, Modules 20) (sample x3): 2.37; Adar 1434268_at (Group G1, Modules 20) (sample x3): 1.8; Ddx58 1436562_at (Group G1, Modules 20) (sample x3): 2.6; Ddx58 1456890_at (Group G1, Modules 20) (sample x3): 2.38; Eif2ak2 1422005_at (Group G1, Modules 20) (sample x3): 2.73; G3bp2 1421323_a_at (Group G1, Modules 20) (sample x3): 2.43; Gm9706///Isg15 1431591_s_at (Group G1, Modules 20) (sample x3): 1.73; H2-T10///H2-T22///H2-T9 1449875_s_at (Group G1, Modules 20) (sample x3): 2.45; Ifih1 1426276_at (Group G1, Modules 20) (sample x3): 1.66; Ifit1 1450783_at (Group G1, Modules 20) (sample x3): 2.63; Ifit3 1449025_at (Group G1, Modules 20) (sample x3): 2.06; Irf7 1417244_a_at (Group G1, Modules 20) (sample x3): 1.62; Irgm1 1418825_at (Group G1, Modules 20) (sample x3): 2.14; Mndal 1426906_at (Group G1, Modules 20) (sample x3): 2.19; Pml 1448757_at (Group G1, Modules 20) (sample x3): 2.49; Pml 1456103_at (Group G1, Modules 20) (sample x3): 1.62; Rnf213 1455500_at (Group G1, Modules 20) (sample x3): 2.18; Rsad2 1436058_at (Group G1, Modules 20) (sample x3): 1.75; Shisa5 1423986_a_at (Group G1, Modules 20) (sample x3): 2.36; Shisa5 1437503_a_at (Group G1, Modules 20) (sample x3): 2.09; Stat1 1450033_a_at (Group G1, Modules 20) (sample x3): 2.85; Stat1 1450034_at (Group G1, Modules 20) (sample x3): 2.26; Tdrd7 1426716_at (Group G1, Modules 20) (sample x3): 2.5; Tor1aip2 1418115_s_at (Group G1, Modules 20) (sample x3): 2.71; Tor1aip2 1418116_at (Group G1, Modules 20) (sample x3): 2.68; Tor1aip2 1435526_at (Group G1, Modules 20) (sample x3): 2.32; Trim12a 1437432_a_at (Group G1, Modules 20) (sample x3): 1.61; Uba7 1426970_a_at (Group G1, Modules 20) (sample x3): 1.91; adjuvant group-associated biological features (z-score selected genes, TargetMine and IPA upstream cytokine analyses): strongly associated with type I and type II interferon responses
